Test results reported in US11234914B2, “Monosubstituted urea derivatives as a self-tanning substance” (MERCK PATENT GMBH, priority 2016, dated 2022).

How the values were obtained:
[1] = tested on: Normal Human Epidermal Keratinocytes (NHEK) and Normal Human Epidermal Melanocytes, lightly pigmented (NHEM-LP) co-culture; assay: Synthesis of melanin in NHEK/NHEM-LP co-culture; format: cell-based; conditions: 240 hours (10 days) incubation, NHEK:NHEM-LP 2:1, OD 405 nm
Description: Evaluation of the Synthesis of Melanin in a Cell Culture Model Containing Two Cell Types (Co-Culture), Firstly Normal Human Epidermal KeratinoCytes (NHEK) and Secondly Normal Human Epidermal Melanocytes, Lightly Pigmented (NHEM-LP)
The two cell types NHEK and NHEM-LP (NHEK:NHEM-LP) are employed in a ratio of 2:1.
The culture medium consists of the media keratinocyte-SFM (2 parts by volume) and medium M254 (1 part by volume).
Keratinocyte-SFM contains 0.25 ng/ml of epidermal growth factor (EGF), 25 μg/ml of pituitary extract (PE) and 25 μg/ml of gentamycin and was purchased from Thermo Fisher Scientific.
M254 contains PMA-free HMGS-2, 5 μg/ml of insulin, 50 U/ml of penicillin, 50 μg/ml of streptomycin and 25 μg/ml of gentamycin and was purchased from Thermo Fisher Scientific.
NHEK and NHEM-LP were incubated in the culture medium in microtitre plates (24-well plates) for 24 hours (37° C., 5% CO2). The culture medium was removed and replaced by an assay medium which contained the culture medium and compounds Ia, Ib and Ic to be tested or alternatively no test substance, the reference L-tyrosine (1 mM), 200 μM of IBMX or the solvent control 0.1% of THF, 0.15% of THF. Compounds Ia, Ib and Ic are added as solution (0.15% in THF). After replacement of the assay medium, the cells were incubated again for 240 hours (10 days). On days 3 and 7, assay medium was again added. All experimental investigations were carried out using a triple determination. After the end of the incubation, the melanin was extracted by cell lysis with 0.5 N NaOH. The optical density (OD) of each sample was measured at 405 nm. The melanin quantity was calculated from melanin standards (standard curve 0.39 to 100 μg/ml of melanin).

[2] = tested on: 3D melanized reconstructed human epidermis (RHEs-MEL); assay: Tanning properties in vitro on reconstructed epidermis; format: cell-based; conditions: compound at 25 μM and 12.5 M
Description: Evaluation of the Tanning Properties In Vitro on Reconstructed Epidermis
In this study, the tanning properties of compound Ic are investigated in vitro on 3D melanized reconstructed human epidermis (RHEs-MEL). The compound IBMX (3-isobutyl-1-methylxanthine) 100 μM is employed as positive control. Compound Ic is employed 25 μM and […]. Untreated reconstructed skin is used as negative control. The in vitro skin is treated systemically with the compounds to be investigated in a culture medium for 10 days and then analysed.

Row | SMILES | stimulation of melanin synthesis ([1]; tested at 45 μM) [%] | ITA value (individual typology angle) ([2]; 10 days, both concentrations) | amount of melanin ([2]; 10 days, both concentrations) | tanning properties compared with positive control IBMX 100 μM ([2]; systemic treatment in culture medium for 10 days, evident for both concentrations) | stimulation of melanin synthesis ([1]; tested at 20 μM) [%] | stimulation of melanin synthesis ([1]; tested at 30 μM) [%]
1 | NC(=O)NCc1ccccc1 [Compound Ia, Benzylurea] | 17 |  |  |  |  | 
2 | COc1ccc(CNC(N)=O)cc1 [Compound Ib, (4-methoxybenzyl)urea] | 18 |  |  |  |  | 
3 | NC(=O)NCc1ccc2c(c1)OCO2 [Compound Ic, benzo[1,3]dioxol-5ylmethylurea] |  | reduction | increased | comparably good properties as IBMX at 100 μM | 23 | 44
